Source: paper PMC7751060 (Antiviral therapy, 2012)
Where two headings read alike, the source gives them in different places.

Key:
[1] = tested on: NPT II expression in HG23 cells; assay: Western blot of NPT II expression in HG23 cells; format: cell-based, Norwalk virus; conditions: for NPT II expression, % of untreated cells: 72 h incubation; for IC50: Norwalk virus, HG23, read-out: IC50, concentration required to reduce NPT II expression in HG23 cells by 50%
NV replicon (HG23 cells) = assay: Norwalk virus replicon assay: NV RNA by RT-qPCR in HG23 cells; format: cell-based; conditions: for Reduction in NV RNA: 10 μM; for Effect on NV RNA levels in HG23 cells, in words: 24-96 h post-treatment; for SI / therapeutic index (CC50/EC50), NV replicon: HG23 cells; for EC90: HG23, read-out: EC90, concentration required to reduce NV RNA copy number in HG23 cells by 90%
HCV = conditions: cited from earlier work
Cytotoxicity assays [2] = format: cell-based; conditions: mouse, RAW 264.7 cells
Cytotoxicity assays [3] = format: cell-based; conditions: human, HG23 and Huh-7 cells
MNV (MNV-1.CW3) [4] = assay: MNV assay: MNV infectivity by TCID50 in RAW 264.7 cells; format: cell-based, murine norovirus; conditions: for Effect on MNV titre (infectivity), in words: RAW 264.7 cells, TCID50
MNV (MNV-1.CW3) [5] = assay: MNV assay: MNV RNA levels by RT-qPCR in RAW 264.7 cells; format: cell-based, murine norovirus; conditions: for EC90 / EC50: Norwalk virus; for EC50: RAW264.7, read-out: EC50, concentration required to reduce MNV RNA copy number by 50%; for SI (CC50/EC50), MNV / Antiviral activity against MNV (RNA levels), in words: RAW 264.7 cells; for Antiviral activity against MNV (RNA levels), in words: 0.1-100 μM (RBV 10-200 μM)
[6] = tested on: bovine viral diarrhoea virus (BVDV); conditions: cited from earlier work
[7] = cited from earlier work
HCV infections = conditions: reportedly; Phase II, treatment of HCV; cited from earlier work
[8] = Norwalk virus, HG23, read-out: EC50, concentration required to reduce NV RNA copy number in HG23 cells by 50%, RT-qPCR
[9] = read-out: EC50, concentration required to reduce NV RNA copy number in HG23 cells by 50%, RT-qPCR
[10] = RAW264.7, read-out: EC90, concentration required to reduce MNV RNA copy number by 90%

SMILES: C[C@@]1(O)[C@H](O)[C@@H](CO)O[C@H]1n1ccc(N)nc1=O [2′-C-MeC, 4-amino-1-((2R, 3R, 4R, 5R)-3,4 dihydroxy-5-(hydroxymethyl)-3-methyltetrahydrofuran-2-yl) pyrimidin-2(1H)-one]
- NPT II expression, % of untreated cells ([1]; 1 μM): 83%
- NPT II expression, % of untreated cells ([1]; 10 μM): 13%
- NPT II expression, % of untreated cells ([1]; 100 μM): 2%
- IC50 [1]: 2.77 ± 1.4 µM
- Reduction in NV RNA (NV replicon (HG23 cells); 72 h post-treatment): 1.2 log10
- Reduction in NV RNA (NV replicon (HG23 cells); 96 h post-treatment): 3.6 log10
- Reduction of NV RNA level (NV replicon (HG23 cells); 0.1 and 1 μM, after 96 h): 2.5 log10
- Effect on NV RNA levels in HG23 cells, in words (NV replicon (HG23 cells)): dose- and time-dependent reduction of NV RNA levels
- SI / therapeutic index (CC50/EC50), NV replicon (NV replicon (HG23 cells)): > 77.5
- EC50 (NV replicon (HG23 cells); [8]): 1.3 µM
- EC90 (NV replicon (HG23 cells); Norwalk virus): 8.9 ± 1.5 µM
- EC50 (NV replicon (HG23 cells); [9]): 1.29 ± 0.8 µM
- EC50 (HCV; read-out: EC50 against HCV, range given for HCV and BVDV together): 2 to 7 µM
- CC50 at 5 days (Cytotoxicity assays [2]): > 100 µM
- CC50 at 5 days (Cytotoxicity assays [3]): > 100 µM
- inhibition at 100 µM (MNV (MNV-1.CW3) [4]; Norwalk virus, RAW264.7, 24 h, read-out: Inhibition of MNV replication (titre)): 99%
- Effect on MNV titre (infectivity), in words (MNV (MNV-1.CW3) [4]): MNV titres were significantly reduced
- Reduction of MNV RNA levels (MNV (MNV-1.CW3) [5]; 0.1 μM, 72 h of exposure): 2 log10
- Inhibition of MNV replication (RNA) (MNV (MNV-1.CW3) [5]; 100 μM, 24 h post-treatment): 3 log10
- EC90 (MNV (MNV-1.CW3) [5]; RAW264.7, 24 h, read-out: EC90, MNV RNA (1 log10 reduction) (converted)): 25.6 ± 3.7 µM
- EC50 (MNV (MNV-1.CW3) [5]): 6.9 ± 3.9 µM
- EC90 (MNV (MNV-1.CW3) [5]; [10]): 25.4 ± 3.6 µM
- SI (CC50/EC50), MNV (MNV (MNV-1.CW3) [5]): >14.6
- Antiviral activity against MNV (RNA levels), in words (MNV (MNV-1.CW3) [5]): dose- and time-dependent reduction of MNV RNA levels
- EC50 ([6]; read-out: EC50 against BVDV, range given for HCV and BVDV together): 2 to 7 µM

SMILES: C[C@@]1(F)[C@H](O)[C@@H](CO)O[C@H]1n1ccc(N)nc1=O [2′-F-2′-C-MeC, 4-amino-1-((2R, 3R, 4R, 5R)-3-fluoro-4-hydroxy-5-(hydroxymethyl)-3-methyltetrahydrofuran-2-yl) pyrimidin-2(1H)-one]
- Effect on NV RNA levels in HG23 cells, in words (NV replicon (HG23 cells)): dose- and time-dependent reduction of NV RNA levels
- SI / therapeutic index (CC50/EC50), NV replicon (NV replicon (HG23 cells)): > 31.4
- EC50 (NV replicon (HG23 cells); [8]): 3.2 ± 1.5 µM
- EC90 (NV replicon (HG23 cells); Norwalk virus): 49 ± 2.9 µM
- Activity against HCV replication, in words (HCV): inhibits HCV
- CC50 at 5 days (Cytotoxicity assays [2]): > 100 µM
- CC50 at 5 days (Cytotoxicity assays [3]): > 100 µM
- IC50 (MNV (MNV-1.CW3) [4]; Norwalk virus, RAW264.7, 12 h, read-out: IC50, MNV infectivity): 33.9 ± 1.1 µM
- Effect on MNV titre (infectivity), in words (MNV (MNV-1.CW3) [4]): reduced MNV titres, but only at 12 h post-treatment
- EC50 (MNV (MNV-1.CW3) [5]): 12.7 ± 2.9 µM
- EC90 (MNV (MNV-1.CW3) [5]; [10]): 91.2 ± 2.8 µM
- SI (CC50/EC50), MNV (MNV (MNV-1.CW3) [5]): >7.9
- Antiviral activity against MNV (RNA levels), in words (MNV (MNV-1.CW3) [5]): dose-dependent antiviral activity only at 12 h post-treatment
- Activity against BVDV replication, in words [6]: not BVDV replication

SMILES: Nc1ccn([C@@H]2CS[C@H](CO)O2)c(=O)n1 [3TC, 4-amino-1-((2R, 5S)-2-(hydroxymethyl)-1,3-oxathiolan-5-yl) pyrimidin-2(1H)-one, reference compound]
- Effect on NV RNA levels in HG23 cells, in words (NV replicon (HG23 cells)): did not show antiviral activity
- CC50 at 5 days (Cytotoxicity assays [2]): > 100 µM
- CC50 at 5 days (Cytotoxicity assays [3]): > 100 µM
- Effect on MNV titre (infectivity), in words (MNV (MNV-1.CW3) [4]): No reduction of MNV titre was observed
- Antiviral activity against MNV (RNA levels), in words (MNV (MNV-1.CW3) [5]): Neither 3TC nor NHC had antiviral activity against MNV

SMILES: O=c1nc(NO)ccn1[C@@H]1O[C@H](CO)[C@@H](O)[C@H]1O [NHC, 1-((2R, 3R, 4S, 5R)-3,4-dihydroxy-5-(hydroxymethyl)tetrahydrofuran-2-yl)-4-(hydroxyamino) pyrimidin-2(1H)-one]
- Mutagenic properties [7]: has mutagenic properties
- NPT II expression, % of untreated cells ([1]; 1 μM): 91%
- NPT II expression, % of untreated cells ([1]; 10 μM): 40%
- NPT II expression, % of untreated cells ([1]; 100 μM): 16%
- IC50 [1]: 6 ± 1.7 µM
- Effect on NV RNA levels in HG23 cells, in words (NV replicon (HG23 cells)): dose- and time-dependent reduction of NV RNA levels
- SI / therapeutic index (CC50/EC50), NV replicon (NV replicon (HG23 cells)): > 68.0
- EC50 (NV replicon (HG23 cells); [8]): 1.5 µM
- EC90 (NV replicon (HG23 cells); Norwalk virus): 16.6 ± 2.1 µM
- EC50 (NV replicon (HG23 cells); [9]): 1.47 ± 1.1 µM
- Activity against HCV, in words (HCV): active against HCV, BVDV
- CC50 at 5 days (Cytotoxicity assays [2]): > 100 µM
- CC50 at 5 days (Cytotoxicity assays [3]): > 100 µM
- Effect on MNV titre (infectivity), in words (MNV (MNV-1.CW3) [4]): No reduction of MNV titre was observed
- EC50 (MNV (MNV-1.CW3) [5]): 8.8 ± 4.2 µM
- SI (CC50/EC50), MNV (MNV (MNV-1.CW3) [5]): >11.4
- Antiviral activity against MNV (RNA levels), in words (MNV (MNV-1.CW3) [5]): Neither 3TC nor NHC had antiviral activity against MNV
- Activity against BVDV, in words [6]: active against HCV, BVDV

SMILES: CC(C)[C@H](N)C(=O)O[C@@H]1[C@@H](CO)O[C@@H](n2ccc(N)nc2=O)[C@]1(C)O [NM-283]
- Clinical outcome in HCV trials, in words (HCV infections): found to have gastrointestinal problems

SMILES: NC(=O)c1ncn([C@@H]2O[C@H](CO)[C@@H](O)[C@H]2O)n1 [RBV, ribavirin, reference compound]
- SI / therapeutic index (CC50/EC50), NV replicon (NV replicon (HG23 cells)): >5.0
- EC50 (NV replicon (HG23 cells); [8]): 40 ± 2.3 µM
- EC90 (NV replicon (HG23 cells); Norwalk virus): 96.3 ± 2.5 µM
- CC50 at 5 days (Cytotoxicity assays [2]): > 100 µM
- CC50 at 5 days (Cytotoxicity assays [3]): > 200 µM
- EC50 (MNV (MNV-1.CW3) [5]): 63.5 ± 2.3 µM
- EC90 (MNV (MNV-1.CW3) [5]; [10]): 105 ± 1.5 µM
- SI (CC50/EC50), MNV (MNV (MNV-1.CW3) [5]): >1.6
- Antiviral activity against MNV (RNA levels), in words (MNV (MNV-1.CW3) [5]): reduced MNV RNA levels in a dose-dependent manner at 12 h and 24 h post-treatment

SMILES: CC(C)C(=O)OC[C@H]1O[C@@H](n2ccc(N)nc2=O)[C@](C)(F)[C@@H]1OC(=O)C(C)C [RG-7128]
- Clinical outcome in HCV trials, in words (HCV infections): demonstrated safety and efficacy against HCV
